Where a name gives a salt, the structure may show the parent alone.
Columns and labels:
männlichen Albinoratten = assay: Conditioned shock avoidance (lever pressing) in rats; type: in vivo, Ratte; details: for Schockvermeidungsreaktion der Ratte: doses down to 2,5 mg/kg/Tag
Description: Die Verbindungen der Erfindung zeigen wertvolle pharmakologische, z.B. stimulierende und antidepressive Wirkungen. Diese können in Tierversuchen, vorzugsweise an Säugetieren, wie Ratten oder Affen, als Testobjekte nachgewiesen werden. Die Verbindungen der Erfindung können ihnen enteral, z.B. oral, oder parenteral, z.B. subkutan, intraperitoneal oder intravenös, z.B. in Form von wässerigen Lösungen oder Stärke enthaltenden Suspensionen, verabreicht werden. Die verwendete Dosis kann in einem Bereich von ungefähr zwischen 0,1 und 100 mg/kg/Tag, vorzugsweise ungefähr 1 und 50 mg/kg/Tag, insbesondere ungefähr 5 und 25 mg/kg/Tag liegen. Die genannten stimulierenden und antidepressiven Wirkungen können z.B. an männlichen Albinoratten beobachtet werden. Die Tiere haben freien Zugang zu Futter und Wasser, mit Ausnahme der Versuchsdauer. Die Untersuchung des Tierverhaltens wird in normierten, schallisolierten Konditionierungskammern, welche einen Schalthebel enthalten, durchgeführt. Gemäss dem Test werden die Ratten durch das Bodengitter der Kammer elektrischen Schocks ausgesetzt. Der Hebel ist an eine programmierte Einrichtung, welche die Abgabe von elektrischen Schocks reguliert, angeschlossen. Die Anzahl der Betätigung des Hebels und die Anzahl der erlittenen Schocks werden registriert. Die Ratten werden vorher dazu trainiert, diesem elektrischen Impuls durch Drücken der Taste auszuweichen. Dann wird der Apparat so eingestellt, dass jede Hebelbetätigung den Schockeintritt um 30 Sekunden verschiebt. Vergisst das Tier den Hebel innerhalb dieses Zeitintervalls zu drücken, so werden alle 15 Sekunden kurze elektrische Schocks abgegeben, bis das Tier den Hebel wieder betätigt. Vor jeder Testperiode werden die Ratten, um sich zu erwärmen, 15 Minuten in den Testkammern gehalten. Während dieser Zeit wird die Anzahl der Hebelbetätigungen nicht registriert. Unmittelbar nach dieser Periode werden die Test-Verbindungen entweder in Kochsalzlösung oder in 3Xiger Maisstärke-Suspension in 5%igem wässerigem Polyäthylenglykol-400, welches auf 10 ml einen Tropfen Polyäthylen-20- sorbitanmonooleat enthält, entweder oral oder intraperitoneal vorabreicht. […] Diese erfindungsgemässe Verbindung zeigt einen einzigartigen Wirkungsmechanismus.

biogener Amine = assay: Uptake inhibition of biogenic amines (statement, no method)
[1] = system: präsynaptischerc(-noradrenergischer Blocker); assay: Presynaptic alpha-noradrenergic blockade (statement, no method); details: compared in kind with Mianserin
anticholinergische = assay: Anticholinergic action (statement, no method)
antihistaminische = assay: Antihistaminic action (statement, no method)
[2] = system: Totenkopf-Aeffchen (squirrel monkeys); assay: Conditioned shock avoidance (Skinner cage) in squirrel monkeys; type: in vivo; details: oral in 0,9%iger wässeriger Kochsalzlösung, doses down to 2,5 mg/kg/Tag; four-hour session
Description: In einem anderen Test werden Totenkopf-Aeffchen (squirrel monkeys) durch Training dazugebracht, den Hebel in einem solchen Skinner-Käfig zu drücken, um dem elektrischen Schock, der auf die Füsse durch das Bodengitter verabreicht wird, auszuweichen. Jeder Tastendruck verschiebt den elektrischen Schock um 20 Sekunden. Versäumt der Affe innerhalb von 20 Sekunden die Taste zu drücken, so wird er kurze (0,5 Sekunden) elektrische Schocks alle 20 Sekunden bis zu seinem nächsten Tastendruck erleiden. Unter Kontrollbedingungen drücken die Affen den Hebel mit einer verhältnismässig stetigen Geschwindigkeit, so dass sie selten mehr als 6 Schocks während einer vierstündigen Versuchsperiode erhalten. Man bestimmt die Anzahl der Vermeidungsreaktionen sowie die Anzahl der erhaltenen Schocks. […] Der Wirkstoff wird in niedrigen Dosen bis hinunter zu 2,5 mg/kg/Tag verabreicht. Die Untersuchung zwecks Gewinnung von Kontrollwerten wird unter Verwendung von Kochsalzlösung allein, ein Tag vor der Untersuchung der Wirkstoffe, durchgeführt.

For `O=C1NCCN1C1CCN(CCC2COc3ccccc3O2)CC1` (racemic) [1-[1-[2-(1,4-Benzodioxan-2-yl)-äthyl]-4-piperidyl]-2-imidazolidinon], the “Zunahme der Schockvermeidungsreaktion, comparison with Methylphenidat” value (männlichen Albinoratten; compared with 5 mg/kg/Tag Methylphenidat intraperitoneal) was “vorteilhaft”, the “Schockvermeidungsreaktion der Ratte” value (männlichen Albinoratten; intraperitoneal) was “erhöht signifikant” and the “Aufnahmehemmer biogener Amine” value (biogener Amine) was “kein Aufnahmehemmer biogener Amine”. The “präsynaptischerc(-noradrenergischer Blocker)” value [1] was “kein präsynaptischerc(-noradrenergischer Blocker”, the “anticholinergische Wirkung” value (anticholinergische) was “weder eine anticholinergische” and the “antihistaminische Wirkung” value (antihistaminische) was “noch eine antihistaminische Wirkung”.
With `O=C1NCCN1C1CCN(CC[C@H]2COc3ccccc3O2)CC1` [1-(S)-Hydrobromid] the “Schockvermeidungsreaktion der Ratte” value (männlichen Albinoratten; intraperitoneal) was “erhöht signifikant”, the “Anzahl der erlittenen Schocks” value [2] was “positive Aenderungen” and the “Ausmass der Vermeidungsreaktionen” value [2] was “positive Aenderungen”.
`COC(=O)C(c1ccccc1)C1CCCCN1` (stereo not shown) [Methylphenidat, reference compound] was tested, and the “Zunahme der Schockvermeidungsreaktion” value (männlichen Albinoratten; 5 mg/kg/Tag, intraperitoneal) was “Zunahme der Schockvermeidungsreaktion”.

Reference: patent publication EP0004358A1, “N-oxacyclylalkyl piperidines, process for their preparation, pharmaceutical compositions containing these compounds” (priority 1978, dated 1979)
